PubChem BioAssay AID1963964 (Molecular Pharmacology Branch, DTP, NCI, 2024)

Test system: 997726-040-R-J2-PDC tumor spheroids, viability
Assay: Anticancer human tumor 997726-040-R-J2-PDC patient-derived squamous cell lung carcinoma cell line growth inhibition [PI3K]
Conditions: spheroids with HUVEC and MSC; for viability, T/C: stronger effect = lower value
Procedure, shortened: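 Combination activity was assessed by viability in multicellular tumor spheroids carrying HUVEC and MSC components. Agents were tested with PI3K inhibitors from a Cmax-based top dose (or 10 microM) downward in half-log increments.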

[1] = curve of first compound, second compound 0.0316 µM
[2] = curve of first compound, second compound 0.1 µM
[3] = curve of first compound, second compound 0.316 µM
[4] = curve of first compound, second compound 1 µM
[5] = second compound 0.0316 µM, first compound 0.0316 µM
[6] = second compound 0.0316 µM, first compound 0.1 µM
[7] = second compound 0.0316 µM, first compound 0.316 µM
[8] = second compound 0.0316 µM, first compound 1 µM
[9] = second compound 0.0316 µM, first compound 3.16 µM
[10] = second compound 0.0316 µM, first compound 10 µM
[11] = second compound 0.1 µM, first compound 0.0316 µM
[12] = second compound 0.1 µM, first compound 0.1 µM
[13] = second compound 0.1 µM, first compound 0.316 µM
[14] = second compound 0.1 µM, first compound 1 µM
[15] = second compound 0.1 µM, first compound 3.16 µM
[16] = second compound 0.1 µM, first compound 10 µM
[17] = second compound 0.316 µM, first compound 0.0316 µM
[18] = second compound 0.316 µM, first compound 0.1 µM
[19] = second compound 0.316 µM, first compound 0.316 µM
[20] = second compound 0.316 µM, first compound 1 µM
[21] = second compound 0.316 µM, first compound 3.16 µM
[22] = second compound 0.316 µM, first compound 10 µM
[23] = second compound 1 µM, first compound 0.0316 µM
[24] = second compound 1 µM, first compound 0.1 µM
[25] = second compound 1 µM, first compound 0.316 µM
[26] = second compound 1 µM, first compound 1 µM
[27] = second compound 1 µM, first compound 3.16 µM
[28] = second compound 1 µM, first compound 10 µM
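Further: spheroids exposed to compounds for seven days before readout.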

## Cn1nccc1Nc1nccc(-c2ccn(C(CO)c3ccc(Cl)c(F)c3)c(=O)c2)n1 (stereo unspecified) + Cc1nc(NC(=O)N2CCCC2C(N)=O)sc1-c1ccnc(C(C)(C)C(F)(F)F)c1
[1]
  IC50: 6270 nM
[2]
  IC50: 307 nM
[3]
  IC50: 59.9 nM
[4]
  IC50: < 31.6 nM
Curve of first compound, second compound 3.16 µM
  IC50: < 31.6 nM
Curve of first compound, second compound 10 µM
  IC50: < 31.6 nM
[5]
  viability, T/C: 72.8%
[6]
  viability, T/C: 72.3%
[7]
  viability, T/C: 63.3%
[8]
  viability, T/C: 65.4%
[9]
  viability, T/C: 55%
[10]
  viability, T/C: 46.1%
[11]
  viability, T/C: 64.7%
[12]
  viability, T/C: 75.7%
[13]
  viability, T/C: 48.3%
[14]
  viability, T/C: 52%
[15]
  viability, T/C: 49.3%
[16]
  viability, T/C: 48.1%
[17]
  viability, T/C: 55.4%
[18]
  viability, T/C: 44.4%
[19]
  viability, T/C: 43%
[20]
  viability, T/C: 34.9%
[21]
  viability, T/C: 38.7%
[22]
  viability, T/C: 33%
[23]
  viability, T/C: 41.9%
[24]
  viability, T/C: 36.8%
[25]
  viability, T/C: 32.7%
[26]
  viability, T/C: 30.2%
[27]
  viability, T/C: 28%
[28]
  viability, T/C: 23.3%
Second compound 3.16 µM, first compound 0.0316 µM
  viability, T/C: 29.8%
Second compound 3.16 µM, first compound 0.1 µM
  viability, T/C: 27.7%
Second compound 3.16 µM, first compound 0.316 µM
  viability, T/C: 23.2%
Second compound 3.16 µM, first compound 1 µM
  viability, T/C: 28.3%
Second compound 3.16 µM, first compound 3.16 µM
  viability, T/C: 27%
Second compound 3.16 µM, first compound 10 µM
  viability, T/C: 16.1%
Second compound 10 µM, first compound 0.0316 µM
  viability, T/C: 17.1%
Second compound 10 µM, first compound 0.1 µM
  viability, T/C: 12.8%
Second compound 10 µM, first compound 0.316 µM
  viability, T/C: 15.8%
Second compound 10 µM, first compound 1 µM
  viability, T/C: 14.3%
Second compound 10 µM, first compound 3.16 µM
  viability, T/C: 17.2%
Second compound 10 µM, first compound 10 µM
  viability, T/C: 7.87%

## CC(=O)c1c(C)c2cnc(Nc3ccc(N4CCNCC4)cn3)nc2n(C2CCCC2)c1=O
Compound 0.000316 µM
  viability, T/C: 94.7% [middle of 4 runs]
Compound 0.001 µM
  viability, T/C: 92.8% [middle of 4 runs]
Compound 0.00316 µM
  viability, T/C: 99.1% [middle of 4 runs]
Compound 0.01 µM
  viability, T/C: 91.3% [middle of 4 runs]
Compound 0.0316 µM
  viability, T/C: 82.2% [middle of 4 runs]
Compound 0.1 µM
  viability, T/C: 62.8% [middle of 4 runs]
Curve of compound
  IC50: > 100 nM

## CCCS(=O)(=O)Nc1ccc(F)c(C(=O)c2c[nH]c3ncc(-c4ccc(Cl)cc4)cc23)c1F + COc1c(OCCCN2CCOCC2)ccc2c3n(c(=NC(=O)c4cnc(N)nc4)nc12)CCN3
Curve of first compound, second compound 0.00316 µM
  IC50: 6610 nM
Curve of first compound, second compound 0.01 µM
  IC50: 5360 nM
[1]
  IC50: 31.6 nM
[2]
  IC50: < 31.6 nM
[3]
  IC50: < 31.6 nM
[4]
  IC50: < 31.6 nM
Second compound 0.00316 µM, first compound 0.0316 µM
  viability, T/C: 68.1%
Second compound 0.00316 µM, first compound 0.1 µM
  viability, T/C: 91.1%
Second compound 0.00316 µM, first compound 0.316 µM
  viability, T/C: 101%
Second compound 0.00316 µM, first compound 1 µM
  viability, T/C: 114%
Second compound 0.00316 µM, first compound 3.16 µM
  viability, T/C: 136%
Second compound 0.00316 µM, first compound 10 µM
  viability, T/C: 20.7%
Second compound 0.01 µM, first compound 0.0316 µM
  viability, T/C: 52.6%
Second compound 0.01 µM, first compound 0.1 µM
  viability, T/C: 70.3%
Second compound 0.01 µM, first compound 0.316 µM
  viability, T/C: 69.6%
Second compound 0.01 µM, first compound 1 µM
  viability, T/C: 76%
Second compound 0.01 µM, first compound 3.16 µM
  viability, T/C: 94%
Second compound 0.01 µM, first compound 10 µM
  viability, T/C: 23.2%
[5]
  viability, T/C: 39.5%
[6]
  viability, T/C: 41.8%
[7]
  viability, T/C: 44.2%
[8]
  viability, T/C: 49.9%
[9]
  viability, T/C: 57.1%
[10]
  viability, T/C: 19.6%
[11]
  viability, T/C: 24%
[12]
  viability, T/C: 24.6%
[13]
  viability, T/C: 25.3%
[14]
  viability, T/C: 28.4%
[15]
  viability, T/C: 28%
[16]
  viability, T/C: 16.5%
[17]
  viability, T/C: 5.93%
[18]
  viability, T/C: 6.12%
[19]
  viability, T/C: 5.74%
[20]
  viability, T/C: 7.01%
[21]
  viability, T/C: 8.12%
[22]
  viability, T/C: 7.64%
[23]
  viability, T/C: 1.54%
[24]
  viability, T/C: 1.08%
[25]
  viability, T/C: 1.77%
[26]
  viability, T/C: 1.68%
[27]
  viability, T/C: 2.43%
[28]
  viability, T/C: 1.82%
